The source of these data is paper PMC5467316, “Antiviral Activity of Fridericia formosa (Bureau) L. G. Lohmann (Bignoniaceae) Extracts and Constituents” (Journal of Tropical Medicine, 2017).

Read-outs that look alike come from different tables or passages of the source. Bounds are passed on as bounds.

The test system of data set [1] is hepatitis B antigen (HBeAg). Also on record: method as in PMID 23576173. Conditions: cited from earlier work.
The subject of data set [2] is hepatitis B surface antigen (HBsAg). Details: method as in PMID 23576173. Conditions: cited from earlier work.
Another data set relates to Enterovirus 71. Also on record: method as in PMID 24679044. Conditions: in vitro; read-out: EC50 against Enterovirus 71; cited from earlier work.
The next data set deals with Vero cells. Details: method as in PMID 24679044. The note with it: cited from earlier work.
The nature of data set [3]: Cytotoxicity assay (MTT), LLCMK2 cells. The note with it: rhesus monkey. The data set is classed as cell-based.
The test system of data set [4] is murine encephalomyocarditis virus (EMCV). Format: cell-based. The note with it: statement in text.
The nature of data set [5]: Cytotoxicity assay (MTT), Vero cells. The data set is classed as cell-based. Conditions: African green monkey.
Data set [6] has as its system vaccinia virus Western Reserve (VACV-WR). Put plainly: microbe, parasite or virus in culture. Format: cell-based. Conditions: for EC50: Vaccinia virus Western Reserve, 48 h; for antiviral activity against VACV-WR (in words): statement in text.
Data set [7] deals with human herpes virus 1 (HSV-1). Put plainly: microbe, parasite or virus in culture. Format: cell-based. The note with it: for EC50: Human alphaherpesvirus 1, 48 h; for antiviral activity against HSV-1 (in words): statement in text.
In data set [8] the test system is dengue virus type 2 (DENV-2). Put plainly: microbe, parasite or virus in culture. The note with it: for EC50: Dengue virus, DENV2, 72 h; for antiviral activity against DENV-2 (in words): statement in text. Format: cell-based.
For the next data set, the system named is HIV-1 replication. Also on record: method as in PMID 24066838, PMID 21610656. Conditions: dose dependent manner; cited from earlier work.
Details of data set [9]: method as in PMID 14977449. The note with it: clinical tests; cited from earlier work.
The subject of another data set is HSV-1. Details: method as in PMID 16350858. Conditions: previously reported; read-out: EC50 against HSV-1; cited from earlier work.
Setting [10] is: read-out: VACV-WR EC50 (value in parentheses), viral titer TCID50/mL 1.0 × 10^6 in 48 h, MTT, concentration in µM.
Where [11] appears, read: read-out: VACV-WR EC50, viral titer TCID50/mL 1.0 × 10^6 in 48 h, MTT.
[12] abbreviates: read-out: HSV-1 EC50 (value in parentheses).

On to `O=c1c2cc(O)ccc2oc2cc(O)c([C@@H]3O[C@H](CO)[C@@H](O)[C@H](O)[C@H]3O)c(O)c12` [2-C-β-D-glucopyranosyl-1,3,7-trihydroxyxanthone], for which the EC50 in [1] is 40 µM; in data set [2], 210 µM.
`O=c1c2c(O)cc(O)cc2oc2c(O)ccc(O)c12` [norbellidifolin]: the EC50 in data set [1] was less than 620 µM; in data set [2], 770 µM.
Consider `COc1cc(O)c2c(=O)c3c(O)ccc(O)c3oc2c1` [1,5,8-trihydroxy-3-methoxyxanthone], for which the values for the EC50 in [1] and in [2] were 350 µM and greater than 980 µM, respectively.
As for euxanthone, in the data set with Enterovirus 71, the EC50 is 12.2 µM. Moreover, in the data set on Vero cells, the 50% cytotoxic concentration (CC50) – broadly, the concentration giving 50% cytotoxicity – was 36.6 µM.
For `O=c1c2cc(O)c(O)cc2oc2cc(O)c([C@@H]3O[C@H](CO)[C@@H](O)[C@H](O)[C@H]3O)c(O)c12` [Mangiferin (1), 2-β-D-Glucopyranosyl-1,3,6,7-tetrahydroxy-9H-xanthen-9-one], the CC50 in data set [3] and in [5] was greater than 500 µg/mL throughout. Further, the “antiviral activity against EMCV (in words)” value in [4] is “low antiviral effect”; in [4] (listed as mangiferin), “practically inactive”. For the same compound, the EC50 in data set [6] (setting [10]) was 432 µM; in [6] (setting [11]), 183 ± 14.3 µg/mL; in data set [7] (read-out: HSV-1 EC50), 268 µg/mL; in data set [7] (setting [12]), 635 µM; in data set [8] (read-out: DENV-2 EC50) it was 266 µg/mL; in [8] (read-out: DENV-2 EC50 (value in parentheses)) it was 629 µM. Also, the “antiviral activity against VACV-WR (in words)” value in data set [6] was “low antiviral effect”; in data set [6] (listed as mangiferin), “practically inactive”. Moreover, the results for the “antiviral activity against HSV-1 (in words)” value in data set [7] and in [7] (listed as mangiferin) were “low antiviral effect” and “practically inactive”, respectively. Moreover, the results for the “antiviral activity against DENV-2 (in words)” value in [8] and in data set [8] (listed as mangiferin) were “low antiviral effect” and “practically inactive”, respectively. In addition, the “inhibitory activity on HIV-1 replication (in words)” value in the data set with HIV-1 replication was “good inhibitory activity”.
Take `Nc1nc2c(ncn2COCCO)c(=O)[nH]1` [Acyclovir, reference compound]: the CC50 in [3] (MTT, exposure 48 and 72 h, read-out: LLCMK2 CC50) was greater than 1000 µg/mL; in data set [5] (MTT, exposure 48 and 72 h, read-out: Vero CC50), greater than 1000 µg/mL.
Turning to `O=c1cc(-c2ccccc2)oc2cc(O)cc(O)c12` [Chrysin (4), 5,7-Dihydroxy-2-phenyl-4H-1-benzopyran-4-one], the CC50 in data set [3] and in [5] was greater than 500 µg/mL each time. The “effect on testosterone levels in men (in words)” value in [9] is “no effect”. Also, the “antiviral activity against EMCV (in words)” value in data set [4] was “did not inhibit the replication cycle”. Moreover, the EC50 in data set [6] (setting [10]) was 486 µM; in data set [6] (setting [11]), greater than 100 µg/mL; in data set [7] (read-out: HSV-1 EC50), greater than 100 µg/mL; in data set [7] (setting [12]), 576 µM; in the data set on HSV-1 it was 2.5 µM. In addition, in [6], the “antiviral activity against VACV-WR (in words)” value is given as “low activity”. The “VACV-WR EC50” value in [6] (viral titer TCID50/mL 1.0 × 10^6 in 48 h, MTT) came out at 123.5 ± 10.5 µg/mL. Besides, the “antiviral activity against HSV-1 (in words)” value in data set [7] is recorded as “low activity”. Besides, in [8], the “antiviral activity against DENV-2 (in words)” value is given as “did not inhibit the replication cycle”.
